In patent US20150072395A1, “RECOMBINANT MICROORGANISMS AND METHODS OF USE THEREOF” (priority 2013, published 2015):

Legend:
[1] = system: E. coli TOP10 harbouring pMTL85151-pheS*; test: Testing pheS* in E. coli (plating on LB with chloramphenicol and DL-4-chlorophenylalanine); format: cell-based
Description: To test the ability of the counter selection marker to work in E. coli, the plasmid pMTL85151-pheS* was transformed into TOP10 and grown under chloramphenicol selection only. Once the culture had reached an OD of 0.5, representing an exponential growth phase, 100 ul was plated onto LB plates containing chloramphenicol and DL-4-chlorophenylalanine as well as chloramphenicol alone as a control, in triplicate, […]

[2] = system: C. autoethanogenum DSM23693 harbouring pMTL85151; test: Toxicity/sensitivity testing of DL-4-chlorophenylalanine, C. autoethanogenum with empty vector; format: cell-based, Clostridium autoethanogenum
Description: (§1) E. coli Top10 and C. autoethanogenum DSM23693 harbouring the empty vector pMTL85151 were grown initially in the presence of DL-4-chlorophenylanine on plates and in liquid media to ascertain if the counter-selection marker has any effect on growth of the organisms.
(§2) The three independent transformants of C. atoethanogenum DSM23693 harbouring pMTL85151-pheS*, as well as C. autoethanogenum DSM23693 harbouring pMTL85151, were grown in liquid PECT media supplemented with thiamphenicol and grown at 37° C. under CO only conditions. After 24 hours, 100 ul of each of the three independent, as well as the control pMTL85151, were plated into PETC-MES agar supplemented with either thiamphenicol alone, or thiamphenicol and DL-4-chlorophenylalanine and incubated for 48 hours.

[3] = system: C. autoethanogenum DSM23693 harbouring pMTL85151-pheS*; format: cell-based, Clostridium autoethanogenum; conditions: summary statement
Description: as §2

[4] = system: E. coli Top10 harbouring the empty vector pMTL85151; test: Toxicity testing of DL-4-chlorophenylalanine, E. coli with empty vector; format: cell-based; conditions: plates and liquid media, 24 hours
Description: as §1

[5] = system: LZ-pMTL83155; test: Sensitivity of C. autoethanogenum transformants to ganciclovir (plating on PETC agar), empty-vector strain; format: cell-based, Clostridium autoethanogenum
Description: (§3) The pMTL83155, pMTL83155-Hsv-tk and pMTL85155-PheS plasmids were introduced into C. autoethanogenum DSM23693 (a derivate of DSM10061) as described in WO2012053905. Outgrowth was performed in PETC broth and spread on PETC-agar media supplemented with 15 μg/ml thiamphenicol (Sigma) and 10 μg/ml trimethoprim (Sigma). Colonies were observed after 3 days of incubation at 37° C. in pressurized gas jars with 20 psi of a gas mix of 48% CO3 2% H2, 20% CO2, 30% N2. Streaks of single colonies were made on PETC-agar media containing 15 μg/mlthiamphenicol.
(§4) The sensitivity of LZ-pMTL83155 and LZ-pMTL83155-hsv-tk to ganciclovir was tested by plating them on PETC agar media containing 20 nM ganciclovir only and PETC agar media containing 20 nM ganciclovir and 15 μg/ml thiamphenicol. […] The presence of Hvs-tk gene confers toxicity to ganciclovir.

[6] = system: LZ-pMTL83155-hsv-tk; format: cell-based, Clostridium autoethanogenum
Description: as §3, with “Colonies were observed after 3 days of incubation at 37° C. in pressurized gas jars with 20 psi of a gas mix of 48% CO3 2% H2, 20% CO2, 30% N2.” left out
as §4

| Structure (SMILES) | Growth on plates with chloramphenicol and DL-4-chlorophenylalanine ([1]; 24 hours at 37° C., compared with chloramphenicol alone) | Growth on plates with chloramphenicol and DL-4-chlorophenylalanine ([1]; after 36 hours) | Sensitivity to prodrug: growth on plate, column LZ-pMTL83155 ([2]; DL-4-Chlorophenlanine 0.20%, CSM PheS, control strain without CSM) | Growth on double selection plates (thiamphenicol and DL-4-chlorophenylalanine) ([2]; PETC-MES agar, 48 hours) | Effect on growth ([2]; plates and liquid media, 48 hours) | Counterselection in combination with PheS* [3] | Effect on growth [4] | Colonies on ganciclovir plates ([5]; 20 nM ganciclovir, with or without 15 μg/ml thiamphenicol) | Sensitivity to prodrug: growth on plate, LZ-pMTL83155 ([5]; Ganciclovir 20 nM, CSM Hsv-tk) | Sensitivity to prodrug: growth on plate, LZ-pMTL83155-hsv-tk ([6]; Ganciclovir 20 nM, CSM Hsv-tk, PETC agar) | Counterselection in combination with HSV-Tk ([6]; summary statement) |
| --- | --- | --- | --- | --- | --- | --- | --- | --- | --- | --- | --- |
| NC(Cc1ccc(Cl)cc1)C(=O)O (racemic) [DL-4-chlorophenylalanine] | a light shading of small colonies | outgrown to the same level as the chloramphenicol alone plates | Lawn | the same results as the thiamphenicol only plate | did not impede growth of either organism in liquid media or on plates | effective for counterselection in C. autoethanogenum | did not impede growth of either organism in liquid media or on plates |  |  |  |  |
| Nc1nc(O)c2ncn(COC(CO)CO)c2n1 [Ganciclovir, ganciclovir] |  |  |  |  |  |  |  | observed only with LZ-pMTL83155 transformants | Lawn | 0-5 ^ | effective for counterselection in C. autoethanogenum |
